The source of these data is patent US8697739B2, “Bicyclic acetyl-CoA carboxylase inhibitors and uses thereof” (Novartis AG, priority 2010, dated 2014).

The target in this experiment is T1, human acetyl-CoA carboxylase 2 (ACC2) (Homo sapiens, UniProt O00763).
T1 construct: The cDNA encoding amino acids 144 to 2458 of human acetyl-CoA carboxylase 2; made in house; host or cells: Sf9 insect cells (baculovirus, pFastBac1)
T1 sequence (O00763 144-2458): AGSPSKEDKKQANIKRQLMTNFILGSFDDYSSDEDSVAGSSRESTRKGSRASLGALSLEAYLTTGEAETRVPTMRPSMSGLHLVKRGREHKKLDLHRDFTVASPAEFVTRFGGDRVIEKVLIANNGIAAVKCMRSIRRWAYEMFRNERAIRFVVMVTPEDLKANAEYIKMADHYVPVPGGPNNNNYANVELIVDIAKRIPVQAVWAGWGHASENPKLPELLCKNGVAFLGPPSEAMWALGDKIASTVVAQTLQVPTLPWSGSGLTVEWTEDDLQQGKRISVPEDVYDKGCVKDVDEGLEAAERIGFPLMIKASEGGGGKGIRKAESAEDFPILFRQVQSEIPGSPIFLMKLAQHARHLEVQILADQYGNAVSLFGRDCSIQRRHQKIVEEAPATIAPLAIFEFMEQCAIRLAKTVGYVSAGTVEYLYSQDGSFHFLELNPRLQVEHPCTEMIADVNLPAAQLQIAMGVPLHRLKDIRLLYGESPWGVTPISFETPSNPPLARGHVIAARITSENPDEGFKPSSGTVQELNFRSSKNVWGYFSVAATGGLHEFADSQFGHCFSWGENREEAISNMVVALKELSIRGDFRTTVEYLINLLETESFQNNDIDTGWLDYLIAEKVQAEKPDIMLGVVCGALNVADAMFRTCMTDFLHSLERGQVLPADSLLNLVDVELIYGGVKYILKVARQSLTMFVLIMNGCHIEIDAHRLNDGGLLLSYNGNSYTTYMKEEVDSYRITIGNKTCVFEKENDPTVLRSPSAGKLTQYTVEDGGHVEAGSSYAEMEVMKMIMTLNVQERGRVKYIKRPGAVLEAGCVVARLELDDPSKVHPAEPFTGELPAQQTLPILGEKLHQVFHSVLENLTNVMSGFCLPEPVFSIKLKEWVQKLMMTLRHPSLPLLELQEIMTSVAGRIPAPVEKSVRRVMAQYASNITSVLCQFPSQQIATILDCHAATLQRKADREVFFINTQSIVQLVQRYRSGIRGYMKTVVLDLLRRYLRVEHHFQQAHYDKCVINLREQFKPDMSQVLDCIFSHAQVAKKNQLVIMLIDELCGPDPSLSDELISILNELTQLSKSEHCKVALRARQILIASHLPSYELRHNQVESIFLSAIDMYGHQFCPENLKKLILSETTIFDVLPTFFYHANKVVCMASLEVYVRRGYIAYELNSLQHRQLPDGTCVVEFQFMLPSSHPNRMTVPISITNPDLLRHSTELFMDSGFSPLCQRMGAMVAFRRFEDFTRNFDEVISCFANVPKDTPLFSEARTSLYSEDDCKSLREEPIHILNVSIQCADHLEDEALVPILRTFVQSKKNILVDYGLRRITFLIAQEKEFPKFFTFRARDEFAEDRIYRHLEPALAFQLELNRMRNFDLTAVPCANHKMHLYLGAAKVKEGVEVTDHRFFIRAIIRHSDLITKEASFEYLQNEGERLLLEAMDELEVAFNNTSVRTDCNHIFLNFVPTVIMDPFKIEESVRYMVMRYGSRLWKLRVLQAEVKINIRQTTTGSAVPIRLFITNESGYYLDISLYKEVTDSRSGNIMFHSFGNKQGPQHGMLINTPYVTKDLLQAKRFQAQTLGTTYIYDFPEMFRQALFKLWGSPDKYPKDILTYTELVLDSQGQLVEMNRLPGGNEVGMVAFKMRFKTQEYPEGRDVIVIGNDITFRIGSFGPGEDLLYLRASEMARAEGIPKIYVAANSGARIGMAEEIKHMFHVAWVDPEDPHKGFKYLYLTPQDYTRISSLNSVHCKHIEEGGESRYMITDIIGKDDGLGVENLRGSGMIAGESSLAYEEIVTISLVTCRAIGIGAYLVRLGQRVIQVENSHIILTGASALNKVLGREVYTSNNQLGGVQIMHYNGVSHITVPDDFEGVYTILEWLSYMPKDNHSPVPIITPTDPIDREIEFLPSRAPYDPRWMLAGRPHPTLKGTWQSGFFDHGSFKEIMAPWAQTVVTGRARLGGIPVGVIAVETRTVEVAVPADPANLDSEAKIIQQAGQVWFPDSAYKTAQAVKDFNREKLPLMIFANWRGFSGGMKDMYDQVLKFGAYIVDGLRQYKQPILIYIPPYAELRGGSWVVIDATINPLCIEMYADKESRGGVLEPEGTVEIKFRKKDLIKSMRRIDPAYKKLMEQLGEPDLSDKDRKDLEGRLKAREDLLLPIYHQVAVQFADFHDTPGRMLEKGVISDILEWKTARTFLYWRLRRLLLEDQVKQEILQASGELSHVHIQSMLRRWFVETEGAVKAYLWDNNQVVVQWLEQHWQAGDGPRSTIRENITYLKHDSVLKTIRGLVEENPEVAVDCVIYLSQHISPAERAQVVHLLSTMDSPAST
Briefly: Acetyl-CoA carboxylase enzyme assay (malonyl-CoA formation by LC/MS/MS). In kind it is biochemical. As to conditions: recombinant human ACC2 (aa 144-2458); read-out: IC50 ACC2. A digest of the protocol:
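Malonyl-CoA formation was read by LC/MS/MS MRM against a [13C3]-malonyl-CoA internal standard, after acetic acid quench. The enzyme was baculovirus/Sf9-expressed human ACC2 residues 144–2458, given 15 minutes room-temperature compound preincubation in HEPES pH 7.5 buffer with MgCl2, citrate and DTT. Substrate solution held 50 μM acetyl-CoA, 120 μM ATP and 2 mM KHCO3.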
Consider `CC(C)(C)c1nnc([C@H]2CC[C@H](NS(=O)(=O)c3ccc4[nH]c(-c5ccc(N6CCNCC6)cc5)nc4c3)CC2)o1` [Example 655, N-((1r,4r)-4-(5-tert-butyl-1,3,4-oxadiazol-2-yl)cyclohexyl)-2-(4-(piperazin-1-yl)phenyl)-1H-benzo[d]imidazole-5-sulfonamide], for which the half-inhibitory concentration (IC50) (in general, the concentration that gives 50% inhibition) is 141 nM. As for `Cc1ccccc1-c1cc2ccc(S(=O)(=O)N[C@H]3CC[C@H](C(=O)N4CCN(C(=O)OC(C)(C)C)C[C@@H]4c4ccccc4)CC3)cc2[nH]1` [Example 322, (S)-tert-butyl 3-phenyl-4-((1r,4S)-4-(2-o-tolyl-1H-indole-6-sulfonamido)cyclohexanecarbonyl)piperazine-1-carboxylate], the IC50 is below 10 nM. The same measure for `Cn1c(-c2ccc(CCC(=O)O)cc2)cc2ccc(S(=O)(=O)N[C@H]3CC[C@H](C(=O)N4CCC[C@@H]4c4ccc(F)cc4)CC3)cc21` [Example 392, 3-(4-(6-(N-((1R,4r)-4-((R)-2-(4-fluorophenyl)pyrrolidine-1-carbonyl)cyclohexyl)sulfamoyl)-1-methyl-1H-indol-2-yl)phenyl)propanoic acid]: 115 nM; for `COC(=O)CCc1ccc(-c2c(Cl)c3ccc(S(=O)(=O)N[C@H]4CC[C@H](C(=O)N5CCCCC5)CC4)cc3n2C)cc1` [Example 360, methyl 3-(4-(3-chloro-1-methyl-6-(N-((1r,4r)-4-(piperidine-1-carbonyl)cyclohexyl)sulfamoyl)-1H-indol-2-yl)phenyl)propanoate]: 35 nM; for `C[C@@H](NC(=O)[C@H]1CC[C@H](NS(=O)(=O)c2ccc3[nH]c(C4CC4)nc3c2)CC1)c1ccccc1` [Example 277, (1r,4R)-4-(2-cyclopropyl-1H-benzo[d]imidazole-5-sulfonamido)-N-((R)-1-phenylethyl)cyclohexanecarboxamide]: 80 nM. For `CN(C(=O)[C@H]1CC[C@H](NS(=O)(=O)c2ccc3[nH]c(-c4ccccc4)nc3c2)CC1)C1CCCCC1` [Example 618, (1r,4r)-N-cyclohexyl-N-methyl-4-(2-phenyl-1H-benzo[d]imidazole-5-sulfonamido)cyclohexanecarboxamide], the IC50 was found to be 80 nM.

On to `C[C@@H](NC(=O)[C@H]1CC[C@H](NS(=O)(=O)c2ccc3c(c2)N(C)[C@@H](C(=O)O)CC3)CC1)c1ccc(F)cc1` [Example 251, (R)-7-(N-((1R,4R)-4-((R)-1-(4-fluorophenyl)ethylcarbamoyl)cyclohexyl)sulfamoyl)-1-methyl-1,2,3,4-tetrahydroquinoline-2-carboxylic acid], for which the IC50 came to 35 nM. In the case of `CC(C)c1nnc([C@H]2CC[C@H](NS(=O)(=O)c3ccc4[nH]c(-c5ccc(N6CCN(C)CC6)cc5)nc4c3)CC2)o1` [Example 587, N-((1r,4r)-4-(5-isopropyl-1,3,4-oxadiazol-2-yl)cyclohexyl)-2-(4-(4-methylpiperazin-1-yl)phenyl)-1H-benzo[d]imidazole-5-sulfonamide], the IC50 was determined as 294 nM. The same measure for `C[C@H]1CCCCN1C(=O)[C@H]1CC[C@H](NS(=O)(=O)c2ccc3c(Cl)c(-c4ccc(CCC(=O)O)cc4)n(C)c3c2)CC1` [Example 416, 3-(4-(3-chloro-1-methyl-6-(N-((1S,4r)-4-((S)-2-methylpiperidine-1-carbonyl)cyclohexyl)sulfamoyl)-1H-indol-2-yl)phenyl)propanoic acid]: below 10 nM. In the case of `CC(C)c1nnc([C@H]2CC[C@H](NS(=O)(=O)c3ccc4[nH]c(-c5ccccc5)nc4c3)CC2)o1` [Example 586, N-((1r,4r)-4-(5-isopropyl-1,3,4-oxadiazol-2-yl)cyclohexyl)-2-phenyl-1H-benzo[d]imidazole-5-sulfonamide], the IC50 came out at 1300 nM. Regarding `C[C@@H](NC(=O)[C@H]1CC[C@H](NS(=O)(=O)c2ccc3c(c2)NCCC3(C)C)CC1)c1ccc(F)cc1` [Example 196, (1r,4R)-4-(4,4-dimethyl-1,2,3,4-tetrahydroquinoline-7-sulfonamido)-N-((R)-1-(4-fluorophenyl)ethyl)cyclohexanecarboxamide], the IC50 was determined as 220 nM. Regarding `CC(C)OC(=O)c1ccc(NS(=O)(=O)c2ccc3nc(-c4ccncc4)[nH]c3c2)cc1` [Example 515, isopropyl 4-(2-(pyridin-4-yl)-1H-benzo[d]imidazole-6-sulfonamido)benzoate], the IC50 came out at 2860 nM. The same measure for `C[C@@H]1COCCN1C(=O)[C@H]1CC[C@H](NS(=O)(=O)c2ccc3c(C#N)c(C4CC4)n(C)c3c2)CC1` [Example 413, 3-cyano-2-cyclopropyl-1-methyl-N-((1R,4r)-4-((R)-3-methylmorpholine-4-carbonyl)cyclohexyl)-1H-indole-6-sulfonamide]: 50 nM; for `O=C(C1CCC(NS(=O)(=O)c2ccc3cc(-c4ccccc4C(F)(F)F)[nH]c3c2)CC1)N1CCNC(C(F)(F)F)C1` (stereo not drawn) [Example 334, 2-(2-(trifluoromethyl)phenyl)-N-((1r,4r)-4-(3-(trifluoromethyl)piperazine-1-carbonyl)cyclohexyl)-1H-indole-6-sulfonamide]: 1420 nM.

Take `O=C([C@H]1CC[C@H](NS(=O)(=O)c2ccc3[nH]c(-c4ccc(N5CCNCC5)cc4)nc3c2)CC1)N1CCOCC1` [Example 104, N-((1r,4r)-4-(morpholine-4-carbonyl)cyclohexyl)-2-(4-(piperazin-1-yl)phenyl)-1H-benzo[d]imidazole-5-sulfonamide]: the IC50 turned out to be 20 nM. `Cn1c(-c2ccc(CCC(=O)O)cc2)c(C#N)c2ccc(S(=O)(=O)N[C@H]3CC[C@H](C(=O)N4CCC[C@H]4C(C)(C)C)CC3)cc21` [Example 429, 3-(4-(6-(N-((1S,4r)-4-((S)-2-tert-butylpyrrolidine-1-carbonyl)cyclohexyl)sulfamoyl)-3-cyano-1-methyl-1H-indol-2-yl)phenyl)propanoic acid]: the half-inhibitory concentration (IC50) came to 75 nM. As for `C[C@@H](NC(=O)[C@H]1CC[C@H](NS(=O)(=O)c2ccc3[nH]c(-c4cccnc4)cc3c2)CC1)c1ccccc1` [Example 284, (1r,4R)-N-((R)-1-phenylethyl)-4-(2-(pyridin-3-yl)-1H-indole-5-sulfonamido)cyclohexanecarboxamide], the half-maximal inhibitory concentration (IC50) came to 14 nM.

As for `C[C@@H](NC(=O)[C@H]1CC[C@H](NS(=O)(=O)c2ccc3[nH]c(-c4ccccc4)nc3c2)CC1)c1ccc(F)cc1` [Example 611, (1r,4R)-N-((R)-1-(4-fluorophenyl)ethyl)-4-(2-phenyl-1H-benzo[d]imidazole-5-sulfonamido)cyclohexanecarboxamide], the IC50 is below 10 nM. To `COCCc1ccc(-c2cc3ccc(S(=O)(=O)N[C@H]4CC[C@H](C(=O)N5CCOC[C@@H]5C(C)C)CC4)cc3[nH]2)cc1` [Example 460, N-((1S,4r)-4-((S)-3-isopropylmorpholine-4-carbonyl)cyclohexyl)-2-(4-(2-methoxyethyl)phenyl)-1H-indole-6-sulfonamide] belongs below 10 nM.

On to `CCOC(=O)[C@H]1CCCN1C(=O)[C@H]1CC[C@H](NS(=O)(=O)c2ccc3cc(-c4ccccc4)n(C)c3c2)CC1` [Example 420, (R)-ethyl 1-((1r,4R)-4-(1-methyl-2-phenyl-1H-indole-6-sulfonamido)cyclohexanecarbonyl)pyrrolidine-2-carboxylate], for which the IC50 was 720 nM. On to `C[C@@H](NC(=O)[C@H]1CC[C@H](NS(=O)(=O)c2ccc3oc4ccccc4c3c2)CC1)c1ccc(F)cc1` [Example 243, (1r,4R)-4-(dibenzo[b,d]furan-2-sulfonamido)-N-((R)-1-(4-fluorophenyl)ethyl)cyclohexanecarboxamide], for which the IC50 worked out at 15 nM. For the molecule `CC(C)(C)c1nnc([C@H]2CC[C@H](NS(=O)(=O)c3ccc4[nH]c(Nc5cccnc5)nc4c3)CC2)o1` [Example 654, N-((1r,4r)-4-(5-tert-butyl-1,3,4-oxadiazol-2-yl)cyclohexyl)-2-(pyridin-3-ylamino)-1H-benzo[d]imidazole-5-sulfonamide], the IC50 was found to be 158 nM. To `Cc1cc(-c2ccc3cc(S(=O)(=O)N[C@H]4CC[C@H](C(=O)N5CCNC[C@H]5c5ccccc5)CC4)ccc3n2)cc(C)n1` [Example 257, 2-(2,6-dimethylpyridin-4-yl)-N-((1R,4r)-4-((R)-2-phenylpiperazine-1-carbonyl)cyclohexyl)quinoline-6-sulfonamide] belongs 50 nM; to `Cn1c(C2CC2)c(C#N)c2ccc(S(=O)(=O)N[C@H]3CC[C@H](C(=O)N4CCCCC4)CC3)cc21` [Example 381, 3-cyano-2-cyclopropyl-1-methyl-N-((1r,4r)-4-(piperidine-1-carbonyl)cyclohexyl)-1H-indole-6-sulfonamide], 210 nM.

In the case of `Cn1c(-c2ccc(CCC(=O)O)cc2)cc2ccc(S(=O)(=O)N[C@H]3CC[C@H](C(=O)N4CCC[C@H]4c4ccc(F)cc4)CC3)cc21` [Example 393, 3-(4-(6-(N-((1S,4r)-4-((S)-2-(4-fluorophenyl)pyrrolidine-1-carbonyl)cyclohexyl)sulfamoyl)-1-methyl-1H-indol-2-yl)phenyl)propanoic acid], the 50% inhibitory concentration (IC50) was below 10 nM. As to `CC(C)OC(=O)c1ccc(NS(=O)(=O)c2ccc3[nH]c(Nc4ccc(S(N)(=O)=O)cc4)nc3c2)cc1` [Example 528, isopropyl 4-(2-(4-sulfamoylphenylamino)-1H-benzo[d]imidazole-5-sulfonamido)benzoate], the 50% inhibitory concentration (IC50) was 41 nM. With `C[C@@H](NC(=O)[C@H]1CC[C@H](NS(=O)(=O)c2ccc3[nH]c(Nc4ccc(N5CCOCC5)nc4)nc3c2)CC1)c1ccccc1` [Example 571, (1r,4R)-4-(2-(6-morpholinopyridin-3-ylamino)-1H-benzo[d]imidazole-5-sulfonamido)-N-((R)-1-phenylethyl)cyclohexanecarboxamide], the half-inhibitory concentration (IC50) is below 10 nM.
